Laboratory results taken from article PMC9959748, “Nucleoside Analogs That Inhibit SARS-CoV-2 Replication by Blocking Interaction of Virus Polymerase with RNA” (International Journal of Molecular Sciences, 2023).
Read-outs that look alike come from different tables or passages of the source.

What was measured:
SARS-CoV-2 [1] = assay: microbe, parasite or virus in culture; format: cell-based, SARS-CoV-2 (hCoV-19/Russia/Moscow-PMVL-12/2020 strain); settings: for log reduction at 50 µM: Severe acute respiratory syndrome coronavirus 2, Vero C1008, 96 h, read-out: Δlog10(RNA), logarithmic change in the SARS-CoV-2 RNA levels; for Effect on SARS-CoV-2 viral RNA titer: summary of Table 1
MDCK cells = settings: concentration decreasing cell number by 50%
[2] = test system: Influenza A/California/7/2009 (H1N1)pdm09; assay: organism not typed; format: cell-based, Influenza virus; settings: for IC50: read-out: IC50 ± SD Influenza Virus; for log reduction at 50 µM: read-out: Δlog10(TCID50) Influenza Virus; for SI (selectivity index), the ratio of CD50 to IC50: influenza virus
[3] = target: SARS-CoV-2 RdRp holoenzyme (nsp12, nsp7, nsp8) (Severe acute respiratory syndrome coronavirus 2, UniProt P0DTD1); assay: biochemical; format: biochemical; settings: for Inhibition of RNA extension by RdRp: 1 mM inhibitor pre-incubated with RdRp before RNA substrate (Figure 3A); for IC50: RdRp pre-incubated with inhibitor, then RNA substrate and ATP added, read-out: IC50 for inhibition of RdRp activity (RNA extension)
SARS-CoV-2 [4] = assay: microbe, parasite or virus in culture; format: cell-based, SARS-CoV-2 (hCoV-19/Russia/Moscow-PMVL-12/2020 strain); settings: for log reduction at 20 µM: measured at 20 µM; for Effect on SARS-CoV-2 infectivity, TCID50 in Vero cells: summary of Table 1
SARS-CoV-2 RdRp [5] = target: T1, SARS-CoV-2 RdRp (Severe acute respiratory syndrome coronavirus 2, UniProt P0DTD1); assay: Electrophoretic mobility shift assay of RNA binding by RdRp; settings: 1 mM inhibitor incubated with RdRp before RNA substrate
SARS-CoV-2 RdRp [6] = target: T1, SARS-CoV-2 RdRp; settings: cited from earlier work
[7] = concentration reducing the cell number by 50%, MTT
[8] = African green monkey (Chlorocebus aethiops)
[9] = Severe acute respiratory syndrome coronavirus 2, Vero C1008, Vero E6, vs DMSO-treated control, read-out: Δlog10(TCID50) SARS-CoV-2

In the case of “1-(β-D-Ribofuranosyl)-5-(4-tert-butylphenoxy)-uracil [Compound 13]”, the “Anti-SARS-CoV-2 activity grade” value (SARS-CoV-2 [1]) is reported as “Moderate activity”, the “Δlog10(RNA), logarithmic change in the SARS-CoV-2 RNA levels” value (SARS-CoV-2 [1]) is reported as 0.8 and the “CD50 ± SD MDCK” value (MDCK cells) is reported as greater than 1000 µM. For the same compound, the “CD50 ± SD Vero E6” value (Vero E6 cells; [7]) was greater than 500 µM, the “Δlog10(TCID50) Influenza Virus” value ([2]; at 50 µM, MDCK cells) was 0.5 and the IC50 [2] was greater than 50 µM.

With `CCCCCc1ccc(-c2cc3cn(C4C=CC(O)C4)c(=O)nc3o2)cc1` (stereo not shown) [Compound 3] the “Anti-SARS-CoV-2 activity grade” value (SARS-CoV-2 [1]) was “Moderate activity”, the log reduction at 50 µM (SARS-CoV-2 [1]) was 1.3 and the “Inhibition of RNA extension by RdRp” value [3] was “completely blocked RNA synthesis”. The “CD50 ± SD MDCK” value (MDCK cells) was 442 ± 21 µM, the “CD50 ± SD Vero E6” value (Vero E6 cells; [8]) was greater than 500 µM and the log reduction at 20 µM (SARS-CoV-2 [4]; [9]) was 0.5. The IC50 ([2]; MDCK) was greater than 50 µM and the log reduction at 50 µM ([2]; at 50 µM, MDCK cells) was 0.

In the case of `CCCCCc1ccc(-c2cc3cn([C@@H]4O[C@H](CO)[C@@H](O)[C@H]4O)c(=O)nc3o2)cc1` [Compound 4, 3-(β-D-Ribofuranosyl)-6-(4-pentylphenyl)-3H-furano [2,3-d]-pyrimidine-2-on], the log reduction at 50 µM (SARS-CoV-2 [1]) is reported as 0.2, the “CD50 ± SD MDCK” value (MDCK cells) is reported as 652 ± 77 µM and the “CD50 ± SD Vero E6” value (Vero E6 cells; [8]) is reported as greater than 500 µM. The log reduction at 20 µM (SARS-CoV-2 [4]; [9]) was 0.5, the IC50 ([2]; MDCK) was greater than 25 µM and the log reduction at 50 µM ([2]; at 50 µM, MDCK cells) was 1.

For `CCCCCc1ccc(-c2cc3cn(COCCO)c(=O)nc3o2)cc1` [Compound 5, 3-((2-(Hydroxy)ethoxy)methyl)-6-(4-pentylphenyl)-3H-furano [2,3-d]-pyrimidine-2-on], the “Anti-SARS-CoV-2 activity grade” value (SARS-CoV-2 [1]) was “Moderate activity”, the log reduction at 50 µM (SARS-CoV-2 [1]) was 0.3 and the “Effect on SARS-CoV-2 viral RNA titer” value (SARS-CoV-2 [1]) was “only weakly affected”. The “Inhibition of RNA extension by RdRp” value [3] was “completely blocked RNA synthesis”, the IC50 [3] was 72 ± 20 µM and the “CD50 ± SD MDCK” value (MDCK cells) was 686 ± 46 µM. The “CD50 ± SD Vero E6” value (Vero E6 cells; [8]) was 400 ± 98 µM, the log reduction at 50 µM (SARS-CoV-2 [4]; [9]) was 1 and the “Effect on SARS-CoV-2 infectivity, TCID50 in Vero cells” value (“Effect on SARS-CoV-2 infectivity” below) (SARS-CoV-2 [4]) was “stronger effects”. For the same compound, the IC50 ([2]; MDCK) was roughly 1 µM, the log reduction at 50 µM ([2]; at 50 µM, MDCK cells) was 1.5 and the IC50 [2] was 1.34 ± 0.33 µM.

With `CCCCCc1ccc(-c2cc3cn([C@@H]4O[C@H](CO)[C@@H](O)[C@H]4O)c(=O)[nH]c-3n2)cc1` [Compound 6, 3-(β-D-ribofuranosyl)-6-(4-pentylphenyl)-3H-pyrrolo [2,3-d]-pyrimidine-2-on] the log reduction at 50 µM (SARS-CoV-2 [1]) was 0.2, the “Effect on SARS-CoV-2 viral RNA titer” value (SARS-CoV-2 [1]) was “inactive” and the “CD50 ± SD MDCK” value (MDCK cells) was 614 ± 52 µM. For the same compound, the “CD50 ± SD Vero E6” value (Vero E6 cells; [8]) was 450 ± 166 µM, the log reduction at 50 µM (SARS-CoV-2 [4]; [9]) was 0 and the “Effect on SARS-CoV-2 infectivity” value (SARS-CoV-2 [4]) was “inactive”. It also gave an IC50 ([2]; MDCK) greater than 50 µM and a log reduction at 50 µM ([2]; at 50 µM, MDCK cells) of 0.

In the case of `CCCCCc1ccc(-c2cc3cn(COCCO)c(=O)[nH]c-3n2)cc1` [Compound 7, 3-((2-(Hydroxy)ethoxy)methyl)-6-(4-pentylphenyl)-3H-pyrrolo [2,3-d]-pyrimidine-2-one], the log reduction at 50 µM (SARS-CoV-2 [1]) is reported as 0.4, the “Effect on SARS-CoV-2 viral RNA titer” value (SARS-CoV-2 [1]) is reported as “inactive” and the “CD50 ± SD MDCK” value (MDCK cells) is reported as 74 ± 12 µM. The “CD50 ± SD Vero E6” value (Vero E6 cells; [8]) was 240 ± 19 µM, the log reduction at 50 µM (SARS-CoV-2 [4]; [9]) was 0 and the “Effect on SARS-CoV-2 infectivity” value (SARS-CoV-2 [4]) was “inactive”. For the same compound, the IC50 ([2]; MDCK) was greater than 50 µM and the log reduction at 50 µM ([2]; at 50 µM, MDCK cells) was 0.5.

In the case of `CC(C)(C)c1ccc(Nc2cn(C3C=CC(O)C3)c(=O)[nH]c2=O)cc1` (stereo not shown) [Compound 8], the “Anti-SARS-CoV-2 activity grade” value (SARS-CoV-2 [1]) is reported as “Moderate activity”, the log reduction at 50 µM (SARS-CoV-2 [1]) is reported as 1.1 and the “Effect on SARS-CoV-2 viral RNA titer” value (SARS-CoV-2 [1]) is reported as “visible reduction”. The “CD50 ± SD MDCK” value (MDCK cells) was 552 ± 35 µM, the “CD50 ± SD Vero E6” value (Vero E6 cells; [8]) was greater than 500 µM and the log reduction at 50 µM (SARS-CoV-2 [4]; [9]) was 0.5. For the same compound, the “Effect on SARS-CoV-2 infectivity” value (SARS-CoV-2 [4]) was “weak protection”, the IC50 ([2]; MDCK) was greater than 50 µM and the log reduction at 50 µM ([2]; at 50 µM, MDCK cells) was 0.5.

For `CC(C)(C)c1ccc(Nc2cn(C3C=CC(O)C3)c(=O)n(C3C=CC(O)C3)c2=O)cc1` (stereo not shown) [Compound 9], the log reduction at 50 µM (SARS-CoV-2 [1]) was 0.8, the “Inhibition of RNA extension by RdRp” value [3] was “weaker effects” and the “CD50 ± SD MDCK” value (MDCK cells) was 392 ± 9 µM. For the same compound, the “CD50 ± SD Vero E6” value (Vero E6 cells; [8]) was 220 ± 23 µM, the log reduction at 50 µM (SARS-CoV-2 [4]; [9]) was 0.5 and the IC50 ([2]; MDCK) was greater than 50 µM. It also gave a log reduction at 50 µM ([2]; at 50 µM, MDCK cells) of 0.5.

For `CC(C)(C)c1ccc(Oc2cn(C3C=CC(O)C3)c(=O)n(C3C=CC(O)C3)c2=O)cc1` (stereo not shown) [Compound 10], the log reduction at 50 µM (SARS-CoV-2 [1]) was 0.8, the “Inhibition of RNA extension by RdRp” value [3] was “completely blocked RNA synthesis” and the “Inhibition of RNA binding by RdRp, EMSA” value (SARS-CoV-2 RdRp [5]) was “fully prevented RNA binding”. The “CD50 ± SD MDCK” value (MDCK cells) was 418 ± 42 µM, the “CD50 ± SD Vero E6” value (Vero E6 cells; [8]) was 500 ± 30 µM and the log reduction at 2 µM (SARS-CoV-2 [4]; Severe acute respiratory syndrome coronavirus 2, Vero C1008, measured at 2 µM (footnote ***), Vero E6, vs DMSO-treated control, read-out: Δlog10(TCID50) SARS-CoV-2) was 0.5. For the same compound, the IC50 ([2]; MDCK) was greater than 50 µM and the log reduction at 50 µM ([2]; at 50 µM, MDCK cells) was -0.5.

In the case of `CC(C)(C)c1ccc(Oc2cn(C3C=CC(O)C3)c(=O)[nH]c2=O)cc1` (stereo not shown) [Compound 11], the “Anti-SARS-CoV-2 activity grade” value (SARS-CoV-2 [1]) is reported as “Moderate activity”, the log reduction at 50 µM (SARS-CoV-2 [1]) is reported as 0.7 and the “CD50 ± SD MDCK” value (MDCK cells) is reported as greater than 1000 µM. The “CD50 ± SD Vero E6” value (Vero E6 cells; [8]) was 440 ± 6 µM, the log reduction at 20 µM (SARS-CoV-2 [4]; [9]) was 1 and the IC50 ([2]; MDCK) was greater than 50 µM. It also gave a log reduction at 50 µM ([2]; at 50 µM, MDCK cells) of -0.5.

With `CC(C)(C)c1ccc(-c2cc3cn(COCCO)c(=O)[nH]c-3n2)cc1` [Compound 14, 3-((2-(Hydroxy)ethoxy)methyl)-6-(4-tert-butylphenyl)-3H-pyrrolo [2,3-d]-pyrimidine-2-one] the “Anti-SARS-CoV-2 activity grade” value (SARS-CoV-2 [1]) was “Moderate activity”, the log reduction at 50 µM (SARS-CoV-2 [1]) was 0.4 and the “Effect on SARS-CoV-2 viral RNA titer” value (SARS-CoV-2 [1]) was “only weakly affected”. For the same compound, the “Inhibition of RNA extension by RdRp” value [3] was “completely blocked RNA synthesis”, the IC50 [3] was 244 ± 58 µM and the “Inhibition of RNA binding by RdRp, EMSA” value (SARS-CoV-2 RdRp [5]) was “fully prevented RNA binding”. For the same compound, the “CD50 ± SD MDCK” value (MDCK cells) was 74 ± 18 µM, the “CD50 ± SD Vero E6” value (Vero E6 cells; [8]) was 310 ± 24 µM and the log reduction at 50 µM (SARS-CoV-2 [4]; [9]) was 1. For the same compound, the “Effect on SARS-CoV-2 infectivity” value (SARS-CoV-2 [4]) was “stronger effects”, the IC50 ([2]; MDCK) was roughly 1 µM and the log reduction at 50 µM ([2]; at 50 µM, MDCK cells) was 1.5. The “SI (selectivity index), the ratio of CD50 to IC50” value ([2]; MDCK cells) was 110.61 and the IC50 [2] was 0.67 ± 0.12 µM.

For `O=C(N[C@@H](Cc1ccc(O)cc1)C(=O)O)c1cc(-c2ccccc2)c(=O)n2c1sc1ccc(OC3CCCCC3)cc12` [HeE1-2Tyr], the IC50 (SARS-CoV-2 RdRp [6]) is listed as 27 µM.

For `O=c1nc(NO)ccn1[C@@H]1O[C@H](CO)[C@@H](O)[C@H]1O` [NHC, N4-hydroxycitidine, reference compound], the “Δlog10(RNA), logarithmic change in the SARS-CoV-2 RNA levels” value (SARS-CoV-2 [1]; measured at 10 µM (footnote *), Vero E6, vs DMSO) was 3.9 * and the “CD50 ± SD Vero E6” value (Vero E6 cells; [7]) was 80 ± 18 µM.

For `CCOC(=O)C1=C[C@@H](OC(CC)CC)[C@H](NC(C)=O)[C@@H](N)C1` [Oseltamivir, reference compound], the “CD50 ± SD MDCK” value (MDCK cells) was 500 ± 82 µM, the IC50 ([2]; MDCK) was 0.61 ± 0.15 µM and the “SI (selectivity index), the ratio of CD50 to IC50” value ([2]; MDCK cells) was 820.

For `Cc1c(C)c2c(c3c1CC[n+]1ccc(/C=C4\Sc5ccccc5N4C)cc1-3)-c1cccc(/C=C3\Sc4ccccc4N3C)[n+]1CC2` [PR673], the IC50 (SARS-CoV-2 RdRp [6]) is given as roughly 4 µM.
